Data on 11 molecules can be found in patent US20250135026A1, “Antibody Drug Conjugates” (BeiGene Switzerland GmbH, priority 2021, published 2025).

For series [1], the system named is A375. In words: Compounds cellular killing (Cell Titer-Glo, 6 days, 2D). The class given is cell-based, human. To be noted: for cell-killing activity compared with Dxd: A375. Here is the method: (§1) The cell line was grown in a humidified 5% CO2 atmosphere at 37° C., and was regularly tested for the presence of mycoplasma with MycoAlert™ PLUS Mycoplasma Detection Kit (Lonza, LT07-710).
(§2) Incubation at 37° C., 5% CO2, overnight.
(§3) Adding the fresh growth-medium containing the varying concentrations of compounds, 50 ul/well.
(§4) Incubation at 37° C., 5% CO2, 6 days.
(§5) The cell viability detected by Cell Titer-Glo (Promega, G7573). Add 70 µL/well of CellTiter-Glo® Reagent in each well.
(§6) Allow the plates to incubate at room temperature for 10 minutes to stabilize luminescent signal.
(§7) Analyze with Microplate Reader.

Series [2] relates to Calu-6. Described as above. To be noted: for cell-killing activity compared with Dxd: Calu-6. The class given is cell-based. As for the experimental part:
as §1, §2, §3, §4, §5, §6, §7

The subject of series [3] is HCC1569. In words: Payload cellular killing, 2D. The class given is cell-based. To be noted: HCC1569, 2D (HER3 +++).
The test system of series [4] is MDA-MB-453. The series can be described thus: Payload cellular killing, 2D. It is filed as cell-based, human. To be noted: MDA-MB-453, 2D (HER3 +++). Here is the method:
as §1

For series [5], the target named is cathepsin B (Homo sapiens, UniProt P07858). The series can be described thus: Cathepsin B mediated rhodamine release. It is filed as biochemical. The settings on record: 150 nM, 0.3 unit activated cathepsin B, pH 5.5, 37° C., FIG. 21. As for the experimental part:
CTSB was activated by incubation at ambient temperature for 15 min with 30 mM dithiothreitol and 15 mM EDTA at PH5.5.
Reaction buffer preparation: 25 mM sodium acetate & 1 mM EDTA, PH5.5.
Adding 150 nM NAcCys-13 & NAcCys-14 & NAcCys-15 & NAcCys-16 & NAcCys-17 and 0.3 unit activated cathepsin B mixture according to the experiment template.
The reaction mixtures were incubated at 37° C. immediately in the reader, then start reading using the kinetic set-up described. (TECAN SPARK: excitation/emission: 485/520 nm) (120 cycles, every one min) Gain Manual: 77%
Data analysis by GraphPad Prism 9 is illustrated in FIG. 21.

For series [6], the system named is A549 (PTK7 low). The series can be described thus: Cellular killing on PTK7 cell lines (Cell-Titer-Glo, 7 days). It is filed as cell-based. To be noted: Anti-proliferation. As for the experimental part:
(§8) The plates were incubated for 7 days at 37° C., 5% CO2. Next, 50 μL of Cell-Titer-Glo reagent was added to each well. The mixture was mixed on an orbital shaker for 10 mins to allow cell lysis. Then, the luminescent signal was measured using BMG PheraStar with the luminescent protocol. The inhibition of Ovcar3 and A549 cell lines is illustrated in FIG. 22 and FIG. 23, respectively.

Series [7] deals with Ovcar3 (PTK7 high). The series is described as above. The class given is cell-based. To be noted: Anti-proliferation. Here is the method: as §8
The nature of series [8]: ADC hydrophobicity evaluation by HIC (retention time of DAR8 species). The class given is physicochemical. To be noted: HIC method with isopropanol in the mobile phase (values marked *, Method 1). The text has this:
ADC Hydrophobicity Evaluation
ADC with more hydrophobic property would appeared with later retention time from HIC (hydrophobicity interaction column) chromatography. In this invention, […].
The HIC retention time (HIC RT, here only HIC RT of DAR8 species is listed in the table) can be seen as a measure to evaluate ADC's hydrophobicity.

The mark [9] stands for this setting: Table 28, payload, A375, 2D (Her3 ++).
The mark [10] stands for this setting: Table 29, payload, A375, 6d, 2D (Her3++).
Setting [11] is: Table 28, payload, Calu-6, 2D (HER3 neg.).
[12] abbreviates: Table 29, payload, Clau6, 6d, 2D (Her3 neg).
Where [13] appears, read: Homo sapiens, Table 28, payload.
The mark [14] stands for this setting: Homo sapiens, Table 28, payload, read-out: Emax.

Read-outs that look alike come from different tables or passages of the source.

The term EC50 denotes the concentration at which the effect is half-maximal. A low value points to a more potent agent. `CC[C@@]1(O)C(=O)OCc2c1cc1n(c2=O)Cc2c-1nc1cc(F)c(C)c3c1c2[C@@H](NC(=O)C(C)(F)CO)CC3` (single isomer, unassigned) [Example 68]: the “cell-killing activity compared with Dxd” value in series [1] and in series [2] was “less potent than Dxd” each time. The Emax was 99.9% in series [1] (Homo sapiens, A-375, Table 21, A375, read-out: Emax) and 98.5% in series [2] (Homo sapiens, Calu-6, Table 21, Calu-6, read-out: Emax). In addition, the EC50 is 4.5 nM in series [1] (Table 21, A375) and 1.8 nM in series [2] (Table 21, Calu-6).

On to `CC[C@@]1(O)C(=O)OCc2c1cc1n(c2=O)Cc2c-1nc1cc(F)c(C)c3c1c2[C@@H](NC(=O)C(C)(F)CO)CC3` (single isomer, unassigned) [Example 69], for which the “cell-killing activity compared with Dxd” value in series [1] and in series [2] was “stronger cell-killing activity than Dxd” throughout. Further, the EC50 is 1.5 nM in series [1] (Table 21, A375) and 0.6 nM in series [2] (Table 21, Calu-6). The Emax in series [1] (Table 21, A375) came to 99.9%; in series [2] (Table 21, Calu-6), 98.2%.

Consider `CC[C@@]1(O)C(=O)OCc2c1cc1n(c2=O)Cc2c-1nc1cc(F)c(C)c3c1c2[C@@H](NC(=O)C(C)(F)CO)CC3` (single isomer, unassigned) [Isomer 1 of Compounds 68 & 69], for which the Emax in series [1] (Homo sapiens, A-375, Table 29, payload, A375, 6d, 2D (Her3++), read-out: Emax) worked out at 99.9%; in series [3] (Homo sapiens, HCC1569, Table 28, payload, read-out: Emax) it was 92%; in series [2] (Homo sapiens, Calu-6, Table 28, payload, Calu-6, 2D (HER3 neg.), read-out: Emax), 98.5%; in series [2] (Homo sapiens, Calu-6, […], Table 29, payload, Clau6, 6d, 2D (Her3 neg), read-out: Emax) it was 98.5%; in series [4] (Homo sapiens, MDA-MB-453, Table 28, payload, read-out: Emax), 97.9%. For the same molecule, the EC50 in series [1] (setting [9]) is 4.5 nM; in series [1] (setting [10]), 4.5 nM; in series [3] (Table 28, payload), 3.2 nM; in series [2] (setting [11]) it was 1.8 nM; in series [2] (setting [12]), 1.8 nM; in series [4] (Homo sapiens, MDA-MB-453, Table 28, payload) it was 2.8 nM.

For `CC[C@@]1(O)C(=O)OCc2c1cc1n(c2=O)Cc2c-1nc1cc(F)c(C)c3c1c2[C@@H](NC(=O)C(C)(F)CO)CC3` (single isomer, unassigned) [Isomer 2 of Compounds 68 & 69], the EC50 in series [1] (setting [9]) is 1.5 nM; in series [1] (setting [10]) it was 1.5 nM; in series [3] (Table 28, payload) it was 0.7 nM; in series [2] (setting [11]) it was 0.6 nM; in series [2] (setting [12]), 0.6 nM; in series [4] (Table 28, payload), 1.5 nM. Moreover, the Emax in series [1] (setting [9]) is recorded as 99.9%; in series [1] (setting [10]), 99.9%; in series [3] (Table 28, payload), 91.6%; in series [2] (setting [11]) it was 98.2%; in series [2] (setting [12]), 98.2%; in series [4] (Table 28, payload), 98.6%.

For the molecule `CCOC(=O)Nc1ccc2c(c1)Oc1cc(NC(=O)OCc3ccc(NC(=O)[C@H](CCCNC(N)=O)NC(=O)[C@@H](NC(=O)CCOCCOCCOCCN4C(=O)CC(SC[C@H](N)C(=O)O)C4=O)C(C)C)cc3)ccc1C21OC(=O)c2ccccc21` (stereo partly drawn) [NAcCys-13, reference compound], the “cathepsin B mediated rhodamine release rate, rank” value in series [5] is recorded as “NAcCys-15˜NAcCys-13 (benchmark)>NAcCys-14>NAcCys-17”.

With `CCc1c2c(nc3ccc(O)cc13)-c1cc3c(c(=O)n1C2)COC(=O)[C@]3(O)CC` [SN-38, reference compound], the concentration giving a half-maximal response (EC50) in series [1] (Homo sapiens, A-375, Table 28, payload, A375, 2D (Her3 ++)) is 3.4 nM; in series [3] (setting [13]), 5 nM; in series [2] (Homo sapiens, Calu-6, Table 28, payload, Calu-6, 2D (HER3 neg.)), 2.9 nM; in series [4] (setting [13]) it was 2.4 nM. Further, the Emax came to 99.9% in series [1] (Homo sapiens, A-375, Table 28, payload, A375, 2D (Her3 ++), read-out: Emax); 95% in series [3] (setting [14]); 99.5% in series [2] (Homo sapiens, Table 28, payload, Calu-6, 2D (HER3 neg.), read-out: Emax); 98.6% in series [4] (setting [14]).

B1: ADC1-4: antibody: Cofetuzumab (conjugate, chains of the INN, looked up)
VH: QVQLVQSGPEVKKPGASVKVSCKASGYTFTDYAVHWVRQAPGKRLEWIGVISTYNDYTYNNQDFKGRVTMTRDTSASTAYMELSRLRSEDTAVYYCARGNSYFYALDYWGQGTSVTVSS
VL: EIVLTQSPATLSLSPGERATLSCRASESVDSYGKSFMHWYQQKPGQAPRLLIYRASNLESGIPARFSGSGSGTDFTLTISSLEPEDFAVYYCQQSNEDPWTFGGGTKLEIK
modifications: drug conjugate
notes: antibody: Cofetuzumab
In general, IC50 refers to the concentration needed to halve the response being measured. Low readings indicate greater potency in that assay, high ones weaker potency in that assay. B1: the Emax worked out at 20.12% in series [6] and 93.45% in series [7]. The IC50 in series [6] is above 200 nM; in series [7], 0.32 nM. In addition, the “HIC DAR8 RT” value in series [8] is on record as 14.50* min.

B2: ADC1-12: antibody: Cofetuzumab; "ADC Compounds used references" (conjugate, chains of the INN, looked up)
VH: QVQLVQSGPEVKKPGASVKVSCKASGYTFTDYAVHWVRQAPGKRLEWIGVISTYNDYTYNNQDFKGRVTMTRDTSASTAYMELSRLRSEDTAVYYCARGNSYFYALDYWGQGTSVTVSS
VL: EIVLTQSPATLSLSPGERATLSCRASESVDSYGKSFMHWYQQKPGQAPRLLIYRASNLESGIPARFSGSGSGTDFTLTISSLEPEDFAVYYCQQSNEDPWTFGGGTKLEIK
modifications: drug conjugate
For the molecule B2, in series [6], the Emax stood at 5.76% and the IC50 is above 200 nM. Also, in series [7], the Emax was found to be 86.04% and the midpoint of inhibition, the IC50, lay at 39.4 nM. In addition, the “HIC DAR8 RT” value in series [8] is given as 13.98* min.

B3: ADC1-2: antibody: Cofetuzumab (conjugate, chains of the INN, looked up)
VH: QVQLVQSGPEVKKPGASVKVSCKASGYTFTDYAVHWVRQAPGKRLEWIGVISTYNDYTYNNQDFKGRVTMTRDTSASTAYMELSRLRSEDTAVYYCARGNSYFYALDYWGQGTSVTVSS
VL: EIVLTQSPATLSLSPGERATLSCRASESVDSYGKSFMHWYQQKPGQAPRLLIYRASNLESGIPARFSGSGSGTDFTLTISSLEPEDFAVYYCQQSNEDPWTFGGGTKLEIK
modifications: drug conjugate
notes: antibody: Cofetuzumab
For B3, the Emax is listed as 34.22% in series [6] and 93.47% in series [7]. Further, the half-maximal inhibitory concentration (IC50) in series [6] was above 200 nM; in series [7], 0.23 nM. Besides, the “HIC DAR8 RT” value in series [8] is 14.67* min.

B4: ADC1-1: antibody: Cofetuzumab; "ADC Compounds used references" (conjugate, chains of the INN, looked up)
VH: QVQLVQSGPEVKKPGASVKVSCKASGYTFTDYAVHWVRQAPGKRLEWIGVISTYNDYTYNNQDFKGRVTMTRDTSASTAYMELSRLRSEDTAVYYCARGNSYFYALDYWGQGTSVTVSS
VL: EIVLTQSPATLSLSPGERATLSCRASESVDSYGKSFMHWYQQKPGQAPRLLIYRASNLESGIPARFSGSGSGTDFTLTISSLEPEDFAVYYCQQSNEDPWTFGGGTKLEIK
modifications: drug conjugate
For the molecule B4, the Emax stood at 38.87% in series [6] and 95.76% in series [7]. The IC50 was above 200 nM in series [6] and 0.31 nM in series [7]. Further, in series [8], the “HIC DAR8 RT” value is on record as 14.56* min.

B5: ADC1-11: antibody: Cofetuzumab (conjugate, chains of the INN, looked up)
VH: QVQLVQSGPEVKKPGASVKVSCKASGYTFTDYAVHWVRQAPGKRLEWIGVISTYNDYTYNNQDFKGRVTMTRDTSASTAYMELSRLRSEDTAVYYCARGNSYFYALDYWGQGTSVTVSS
VL: EIVLTQSPATLSLSPGERATLSCRASESVDSYGKSFMHWYQQKPGQAPRLLIYRASNLESGIPARFSGSGSGTDFTLTISSLEPEDFAVYYCQQSNEDPWTFGGGTKLEIK
modifications: drug conjugate
notes: antibody: Cofetuzumab
Regarding B5, the Emax is 26.44% in series [6] and 100.9% in series [7]. In addition, the figures for the IC50 in series [6] and in series [7] were above 200 nM and 2.1 nM, respectively. The “HIC DAR8 RT” value in series [8] is 14.77* min.
